The structures appear in SMILES notation.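 48-hour exposure; five concentrations; linearly interpolated endpoints. GI50 marks 50% less growth. Definition used: TGI = concentration required for complete inhibition of growth.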

Some test systems named below: SNB-78 CNS; OVCAR-8 ovarian; RPMI-8226 leukemia; OVCAR-3 ovarian; NCI-H23 lung; M19-MEL melanoma; NCI-H226 lung; SF-268 CNS; HL-60(TB) leukemia; SK-MEL-28 melanoma; IGROV1 ovarian; LOX IMVI melanoma; HOP-92 NSCLC.
Test in all cases: NCI-60 cell line screen, 48 h

With `C/C(=C1/N=C(c2cc([N+](=O)[O-])ccc2Cl)N(C2=CC=C(Cl)CC2)C1=O)c1cc2ccccc2oc1=O`, the TGI in the experiment with SNB-78 CNS was over 100 µM; in the experiment with OVCAR-8 ovarian, over 100 µM; in the experiment on RPMI-8226 leukemia, over 100 µM; in the experiment on OVCAR-3 ovarian it was over 100 µM; with NCI-H23 lung, 58.8 µM; in the experiment on M19-MEL melanoma it was over 100 µM. Moreover, the TGI in the experiment with NCI-H226 lung, with SF-268 CNS, with HL-60(TB) leukemia, in the experiment on SK-MEL-28 melanoma, in the experiment with IGROV1 ovarian and in the experiment on LOX IMVI melanoma was over 100 µM throughout.

In the case of `CCCCN(CCCC)c1ccc(N=Nc2ccc(S(=O)(=O)O)cc2)cc1`, the TGI is 44.9 µM in the experiment with OVCAR-8 ovarian; 53.5 µM with RPMI-8226 leukemia; 22.1 µM with HOP-92 NSCLC; over 100 µM in the experiment on OVCAR-3 ovarian; 47.2 µM with NCI-H23 lung; over 100 µM in the experiment on SF-268 CNS. For the same compound, the TGI in the experiment with HL-60(TB) leukemia is 53.1 µM; in the experiment on SK-MEL-28 melanoma it was over 100 µM; with IGROV1 ovarian, 43.1 µM; with LOX IMVI melanoma, 42.8 µM.

On to `CC1=CC[C@H](C)C(C)(C)C1/C=C/C(C)=C/CC[C@@]1(CO)[C@H](CCCO)/C(=C(/C)C=O)CC[C@]1(C)O` (stereo partly specified), for which the TGI worked out at 27.5 µM with SNB-78 CNS; 32.9 µM with OVCAR-8 ovarian; 23 µM in the experiment with NCI-H23 lung; 53.3 µM with M19-MEL melanoma; 14.4 µM in the experiment with NCI-H226 lung; 25.1 µM in the experiment on SF-268 CNS. Further, the TGI in the experiment on HL-60(TB) leukemia was determined as 7.79 µM; in the experiment on SK-MEL-28 melanoma it was 23.7 µM; in the experiment on IGROV1 ovarian, 24.7 µM; in the experiment on LOX IMVI melanoma, 15.7 µM.

On to `CC(=O)/C=C/c1c[nH]c(=O)[nH]c1=O`, for which the TGI in the experiment with SNB-78 CNS amounted to 756 µM; with OVCAR-8 ovarian, 873 µM; with RPMI-8226 leukemia, 679 µM; with HOP-92 NSCLC it was 102 µM; with OVCAR-3 ovarian, 608 µM; with NCI-H23 lung it was 745 µM. Moreover, the TGI in the experiment with M19-MEL melanoma worked out at 771 µM; in the experiment with NCI-H226 lung, 565 µM; in the experiment with SF-268 CNS it was 720 µM; with HL-60(TB) leukemia, 528 µM; in the experiment on SK-MEL-28 melanoma, 504 µM; with IGROV1 ovarian, 861 µM. The compound also registered a TGI with LOX IMVI melanoma of 354 µM.

On to `Cc1cc(S(N)(=O)=O)c(S/C(=N\Nc2ccc([N+](=O)[O-])cc2)c2ccc(Cl)cc2)cc1Cl`, for which the TGI is 28.3 µM with RPMI-8226 leukemia; 5.4 µM with HOP-92 NSCLC; 3.85 µM in the experiment with OVCAR-3 ovarian; 4.91 µM with NCI-H23 lung; 6.57 µM in the experiment on NCI-H226 lung; 6.58 µM with SF-268 CNS. Moreover, the values for the TGI in the experiment on HL-60(TB) leukemia, in the experiment on SK-MEL-28 melanoma and in the experiment on IGROV1 ovarian were over 100 µM, 4.91 µM and 12.8 µM, respectively.

Consider `O=C(COC(=O)c1ccccc1)c1ccc(Br)cc1`, for which the TGI in the experiment on OVCAR-8 ovarian was over 100 µM; in the experiment on RPMI-8226 leukemia, 16.9 µM; in the experiment on HOP-92 NSCLC it was 30.5 µM; in the experiment with OVCAR-3 ovarian, over 100 µM; with NCI-H23 lung, 49.2 µM; in the experiment on SF-268 CNS, 34.4 µM. The TGI in the experiment with HL-60(TB) leukemia was determined as 48.2 µM; in the experiment on SK-MEL-28 melanoma, 32.1 µM; in the experiment on IGROV1 ovarian, 3.59 µM; in the experiment with LOX IMVI melanoma, 11.2 µM.

`COc1cc2cnc3c(c2cc1OC)Cc1cc2c(cc1-3)OCO2`: the GI50 was 0.0527 µM in the experiment on OVCAR-8 ovarian; under 0.01 µM in the experiment on RPMI-8226 leukemia; over 93.6 µM in the experiment on HOP-92 NSCLC; 41.1 µM in the experiment with NCI-H226 lung; 1.86 µM with SK-MEL-28 melanoma; 0.014 µM with IGROV1 ovarian. Besides, the GI50 with LOX IMVI melanoma was 0.576 µM. The TGI was over 100 µM in the experiment with OVCAR-8 ovarian; 85.7 µM with RPMI-8226 leukemia; over 100 µM with HOP-92 NSCLC; 24.6 µM in the experiment with NCI-H23 lung; over 95.8 µM with NCI-H226 lung; 31.3 µM with SF-268 CNS. Further, the TGI was over 100 µM in the experiment with SK-MEL-28 melanoma, over 62.9 µM in the experiment with IGROV1 ovarian and over 100 µM in the experiment with LOX IMVI melanoma.

As to `O=S(=O)(O)c1ccc(N=Nc2ccc(N=Nc3ccc(/C=C/c4ccc(N=[N+]([O-])c5ccc(/C=C/c6ccc(N=Nc7ccc(N=Nc8ccc(S(=O)(=O)O)cc8)c8ccccc78)cc6S(=O)(=O)O)c(S(=O)(=O)O)c5)cc4S(=O)(=O)O)c(S(=O)(=O)O)c3)c3ccccc23)cc1`, the TGI in the experiment on SNB-78 CNS, in the experiment with OVCAR-8 ovarian, in the experiment with RPMI-8226 leukemia, in the experiment with HOP-92 NSCLC, with OVCAR-3 ovarian and in the experiment with NCI-H23 lung was over 100 µM each time. Further, the TGI in the experiment with M19-MEL melanoma, in the experiment on NCI-H226 lung, with SF-268 CNS, with HL-60(TB) leukemia, in the experiment with SK-MEL-28 melanoma and in the experiment with IGROV1 ovarian was over 100 µM in each case. In addition, the TGI in the experiment on LOX IMVI melanoma is over 100 µM.

In the case of `Nc1ccccc1Sc1ccc(Cl)cc1`, the TGI in the experiment on SNB-78 CNS was 46.6 µM; in the experiment on OVCAR-8 ovarian, over 100 µM; with RPMI-8226 leukemia, 67.9 µM; in the experiment on HOP-92 NSCLC, 41.1 µM; in the experiment on OVCAR-3 ovarian, 72.1 µM; in the experiment on NCI-H23 lung it was 64.4 µM. Moreover, the TGI with M19-MEL melanoma was 60.7 µM; in the experiment on NCI-H226 lung, 26.2 µM; in the experiment with SF-268 CNS, over 100 µM; in the experiment on HL-60(TB) leukemia, 53.3 µM; in the experiment with SK-MEL-28 melanoma it was 64 µM; in the experiment on IGROV1 ovarian, over 100 µM. Further, in the experiment with LOX IMVI melanoma, the TGI is over 100 µM.

For `COc1cccc(NC(=O)N/C(=C/c2ccc(N(CCC#N)CCC#N)cc2)NC(=O)c2cc([N+](=O)[O-])ccc2Cl)c1`, the TGI in the experiment with SNB-78 CNS, in the experiment with OVCAR-8 ovarian, in the experiment with RPMI-8226 leukemia, with HOP-92 NSCLC, in the experiment with OVCAR-3 ovarian and in the experiment on NCI-H23 lung was over 100 µM throughout. Moreover, the TGI in the experiment on M19-MEL melanoma, with NCI-H226 lung, with SF-268 CNS, in the experiment on SK-MEL-28 melanoma, in the experiment with IGROV1 ovarian and in the experiment on LOX IMVI melanoma was over 100 µM each time.

As to `CNC=O`, the TGI in the experiment with SNB-78 CNS, in the experiment on OVCAR-8 ovarian, in the experiment on RPMI-8226 leukemia, in the experiment on HOP-92 NSCLC, in the experiment with OVCAR-3 ovarian and with NCI-H23 lung was over 10000 µM each time. Also, the TGI in the experiment on M19-MEL melanoma, with NCI-H226 lung, in the experiment on SF-268 CNS, in the experiment on HL-60(TB) leukemia, in the experiment with SK-MEL-28 melanoma and in the experiment with IGROV1 ovarian was over 10000 µM in each case. Further, the TGI with LOX IMVI melanoma is over 10000 µM.

Source of the values: PubChem BioAssay (NCI).
